Patent publication US9688637B2, “3-amidobenzamides and uses thereof for increasing cellular levels of A3G and other A3 family members” (Northwestern University, priority 2014, dated 2017)

Assays:
[1] = tested on: A3G-Luc; experiment: A3G-Luc luciferase screen in 293T cells stably expressing A3G-Luc; format: cell-based, human; details: for A3G-Luc Activity (% of Relative Light Units compared to DMSO treated control): 10 μM, 48 hrs, DMSO = 100%
Text: This background led to construction of cell lines to use in a search for compounds that might boost levels of A3s in the HIV target cells of the majority of HIV-infected persons who are non-controllers. The goal is to test a strategy of using such a booster in acute/early infection to prevent the hypothesized decrease of A3G and related A3s in an effort to increase “control” in persons lacking HLA B57/27-associated control. […] 293T and TZM-bl cells were maintained in DMEM (containing 4.5 g/liter glucose, L-glutamine, and sodium pyruvate) medium plus 10% fetal bovine serum, 50 IU/ml penicillin, and 50 μg/ml streptomycin at 37° C. and 5% CO2 throughout the experiments. […]. After collecting viral supernatant, 293T cells were infected with viral particles harboring the A3G-Luc expressing vector and selected with puromycin (0.75 μg/ml) for three days. Ten single cell clones of stable cells were isolated and tested for expression of A3G-Luc protein by both immunoblotting using antibody against A3G and measuring luciferase activity. Expressions in cell lines used for subsequent experiments are depicted in FIG. 2, upper panel. The A3G-Luc fusion protein was sensitive to Vif-mediated degradation (FIG. 3). Similar cells lines stably expressing A3F were constructed with the same methods (not shown).
To screen compounds that can boost A3G levels, 293T cells (25,000 cells per well in 96-well plate) stably expressing A3G-Luc protein or A3G-Luc/Vif proteins were plated. […] After 48 hrs of incubation with compounds culture medium was removed from each well and replaced with 100 μl of Britelite Plus luciferase assay substrate (PerkinElmer). Following 5 min. of incubation at room temperature, 75 μl of each cell lysate was transferred to a 96-well OptiPlate 96 (PerkinElmer) and luminescence was measured in a VICTOR X2 Multilabel Reader (PerkinElmer). Relative activity of compounds for their boosting capability A3G-Luc activity was calculated by plotting DMSO-treated A3G-Luc or A3G-Luc/Vif cells as 100%. Cellular cytotoxicity was measured by counting number of cells after 48 hrs of incubation with compounds compared to DMSO treated cells.

[2] = tested on: A3G-Luc/Vif; experiment: A3G-Luc/Vif luciferase screen in 293T cells stably co-expressing A3G-Luc and HIV-1 Vif; format: cell-based, human; details: for Vif-A3G-Luc Activity (% of RLUs compared to DMSO treated control): 10 μM, 48 hrs, DMSO = 100%
Method: FIG. 6. 293T cell clone #6 stably co-expressing A3G-Luciferase fusion protein together with HIV-1 Vif was used. Small molecule compounds were tested for their effects on stability of A3G and inhibition of Vif activity against A3G by measuring luciferase activity, relative to treatment with control DMSO only. The relative % luciferase activity was higher after treatment with NU compounds than DMSO.
[…]. After sorting, expression of both A3G-Luc and Vif was confirmed by immunoblotting using antibody against both A3G and Vif.
To screen compounds that can boost A3G levels, 293T cells (25,000 cells per well in 96-well plate) stably expressing A3G-Luc protein or A3G-Luc/Vif proteins were plated. After 24 hrs post plating culture medium was replaced with 100 μl of new medium containing either DMSO as a control or various compounds (10 μM concentration). After 48 hrs of incubation with compounds culture medium was removed from each well and replaced with 100 μl of Britelite Plus luciferase assay substrate (PerkinElmer). Following 5 min. of incubation at room temperature, 75 μl of each cell lysate was transferred to a 96-well OptiPlate 96 (PerkinElmer) and luminescence was measured in a VICTOR X2 Multilabel Reader (PerkinElmer). Relative activity of compounds for their boosting capability A3G-Luc activity was calculated by plotting DMSO-treated A3G-Luc or A3G-Luc/Vif cells as 100%. Cellular cytotoxicity was measured by counting number of cells after 48 hrs of incubation with compounds compared to DMSO treated cells.

[3] = tested on: Wild-type HIV-1; experiment: A3F-mediated restriction of wild-type HIV-1; virus from 293T stably expressing A3F, TZM-bl readout; format: cell-based; details: Human immunodeficiency virus 1, HEK-293T, read-out: A3F-mediated Restriction by Compounds on Wild-type HIV-1 (% of HIV replication relative to DMSO treated Control)
Method: To test the effect of compounds shown to boost A3G-Luc levels in our screening systems on inhibition of wild-type HIV-1 replication by A3G or A3F, 293T cell lines stably expressing A3G or A3F were plated (750,000 cells per well in 6-well plate). At 24 hrs post plating, 1.5 μg of a wild-type (Vif-positive) HIV-1 proviral vector, NL4.3, was transfected into the 293T stable cell lines expressing either A3G or A3F. At 4 hrs post transfection, either DMSO as a control or an individual compound from series described below was added into the culture medium at a 10 μM concentration. At 1 day post transfection, supernatant fluids containing viral particles were filtered through […] filter to remove cellular debris. To test the effect of compound on HIV-1 replication, TZM-bl indicator cells were plated at a density of 10,000 cells/well in a 96 well culture plate 24 hrs prior to infection. TZM-bl indicator cells express luciferase gene under the control of HIV LTR promoter and are routinely used to measure HIV-1 replication capability. On the day of infection, the culture medium was removed and the cells inoculated with equal amount of HIV-1 particles in triplicate with 100 μl of viral supernatants in culture medium containing 20 μg/ml DEAE-dextran. After 24 hrs of incubation, culture medium was removed from each well and replaced with 100 μl of Britelite Plus luciferase assay substrate. Following 5 min. of incubation at room temperature, 75 μl of each cell lysate was transferred to a 96-well OptiPlate 96 and luminescence was measured in a VICTOR X2 Multilabel Reader as described above. Relative infectivity was calculated by plotting luciferase activity from viral particle from DMSO treated A3G or A3F cell lines as 100%. We only tested effect A3F- or A3G mediated restriction of HIV-1 replication by compounds boosting luciferase activity by more than 160% compared to DMSO control sample.

[4] = tested on: BC-1; experiment: BC-1 primary effusion lymphoma cell proliferation; format: cell-based; details: primary effusion lymphoma (PEL) cell line (FIG. 10)
Text: FIG. 10. A primary effusion lymphoma (PEL) cell line (BC-1, infected with both Kaposi's sarcoma herpesvirus and Epstein Barr Virus) is also killed by the listed compounds.

SMILES	A3G-Luc Activity (% of Relative Light Units compared to DMSO treated control) [1] [%]	increase of A3G ([1]; 293T stably expressing A3G-Luc, without Vif (FIG. 6))	Vif-A3G-Luc Activity (% of RLUs compared to DMSO treated control) [2] [%]	increase of A3G ([2]; 293T stably expressing A3G-Luc, with Vif (FIG. 6))	activity at 10 µM [3] [%]	BC-1 cell proliferation [4]
COc1ccc(C(=O)Nc2ccc(Cl)c(Cl)c2)cc1NC(=O)C(C)C [NU-52]	178	about 3 fold	135	about 3 fold	57	inhibit BC-1 cell proliferation
COc1ccc(C(=O)Nc2ccc(Cl)c(Cl)c2)cc1NC(=O)CC1CC1 [NU-466]	318		202		59	inhibit BC-1 cell proliferation
COc1ccc(C(=O)Nc2ccc(Cl)c(Cl)c2)cc1NC(=O)C1CCC1 [NU-302]	196		167		58	inhibit BC-1 cell proliferation
